This is an account of results in patent US12077555B2, “STAT degraders and uses thereof” (Kymera Therapeutics, Inc., priority 2019, dated 2024).

Assay type in all cases: cell-based
Assay [1] relates to STAT3. As to the kind of experiment: STAT3 RT-qPCR assay, STAT3 mRNA. The following applies: SU-DHL-1 cells, FIG. 5A, FIG. 15. The protocol:
(§1) SU-DHL-1 cells were treated with compounds for a designed time. 0.3-0.6 mL lysis buffer with 2-mercaptoethanol was added to the collected cell pellet or monolayer cells. The cells were vortexed until the cell was dispersed and the cells appear lysed. One volume of 70% ethanol was added to each volume of cell homogenate and vortex. 700 μL of the sample was transferred to the spin cartridge and centrifuged at 12000 g for 15s at RT. The flow-through was discarded and the process repeated until the entire samples had been processed. 700 ul wash buffer I was added to the spin cartridge and centrifuged at 12000 g for 15s at RT and the flow-through was discarded. 500 μL wash buffer II with ethanol was added to the spin cartridge and centrifuged at 12000 g for 15s at RT and the flow-through was discarded. The process was then repeated. The spin cartridge was centrifuged at 12000 g for 2 min to dry the membrane with bound RNA. 30-100 μL RNase-free water was added to the center of the spin cartridge and incubated for 1 min at RT. […] The concentration of the RNA was quantitated using Nano-Drop. cDNA was formed from the RNA by reverse transcription and qPCR of the cDNA with primer of the gene of interest and housekeeping gene was preformed using the volumes below: […]
(In general: Real-time PCR tracks product formation cycle by cycle.)

The next assay deals with SOCS3. As to the kind of experiment: STAT3 RT-qPCR assay, SOCS3 mRNA. Conditions: SU-DHL-1 cells. The protocol: as §1
Assay [2] deals with SU-DHL-1 cells. As to the kind of experiment: Wash-out study in SU-DHL-1 cells. Conditions: 1 uM compound for 24 and 48 hr, then wash-out; FIGS. 10 and 18. The protocol: I-103 and I-174 were tested in the wash-out protocol.
• Seed cell suspension in T75 flasks and treat with 0.1% DMSO and 1 uM compound for 24 and 48 hr. Day 0 • Collect cell suspension from the flasks in conical tubes after 24 and 48 hr, spin down at 1,000 rpm for 5 min. • Remove supernatant. Wash with PBS, spin down at 1,000 rpm for 5 min, repeat PBS wash one more time. • Seed the cells at 2,000 cells per well in 384-well plates for growth inhibition measurement via CellTiterGlo (CTG) and 10,000 cells per well in 96-well plates for STAT3 levels via MSD. • Measure T0 for CTG and collect pellets to measure levels of STAT3 by MSD Day 1-4 • Measure CTG every day for 4 days post wash-out. • Collect pellets and measure levels of STAT3 by MSD every day for 4 days post wash-out. Growth inhibition was normalized to T0 and graphed as % control.

Assay [3] relates to SU-DHL-1 cells. The assay can be described thus: Caspase 3/7-Glo activity assay. The following applies: SU-DHL-1, FIG. 17. The protocol: Determination of apoptosis was determined using a Caspase 3/7-Glo assay.
• 1—Prepare the Caspase-Glo® 3/7 Reagent (Promega cat #G8090) • Equilibrate the Caspase-Glo® 3/7 Buffer and lyophilized Caspase-Glo® 3/7 Substrate to room temperature before use. • Transfer the contents of the Caspase-Glo® 3/7 Buffer bottle into the amber bottle containing Caspase-Glo® 3/7 Substrate. • Mix by swirling or inverting the contents until the substrate is thoroughly dissolved to form the Caspase-Glo® 3/7 Reagent • Aliquot and store at −20 • 2—If thawing the reagent, allow it to equilibrate to room temperature. Mix well. • 3—Remove white-walled 384-well plate containing treated cells from the incubator and allow plates to equilibrate to room temperature. • 4—Add Caspase-Glo® 3/7 Reagent to each well of the plate at 1:1 ratio with media. Because of the sensitivity of this assay, be careful not to touch pipet tips to the wells containing samples to avoid cross-contamination. Cover the plate with a plate sealer or lid. • 5—Gently mix contents of wells using a plate shaker at 300-500 rpm for 30 seconds. Incubate at room temperature for 30-60 minutes. Note: Temperature fluctuations will affect the luminescence reading. • 6—Measure the luminescence of each sample in a plate-reading luminometer as directed by the luminometer manufacturer.

A further assay has as its system DEL cells. As to the kind of experiment: CellTiter-Glo cell viability, DEL.
The test system of assay [4] is SU-DHL-1 cells. The assay can be described thus: wash-out study in SU-DHL-1 cells. Conditions: after 4 days. The protocol: FIG. 10 depicts wash-out study results with I-103 at 24 hours (A) and 48 hours (B).
Assay [5] deals with STAT3 (Homo sapiens, UniProt P40763). The assay can be described thus: STAT3 HiBiT degradation assay in transfected A549 cells. Conditions: A549, 24 h; read-out: STAT3 HiBiT A549 degradation 24 h: Average external-Abs DC50. Further details: expressed in transfected cells; host or cells: A549. In a few lines:
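Transfected A549 cells (~2000/well) plated 24 h, then treated 24 h at 37 °C, 5% CO2 with a 3-fold, 10-point compound dilution. HiBiT lytic luminescence read after 10 min at room temperature; remaining STAT3 normalized to negative and positive controls, four-parameter fit. DC50 binned A <0.01, B 0.01–0.1, C 0.1–1.0, D >1.0 µM.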

In another assay the test system is PD-L1. The assay can be described thus: STAT3 RT-qPCR assay, PD-L1 mRNA. The following applies: SU-DHL-1 cells. The protocol:
as §1

STAT3 (Homo sapiens, UniProt P40763), sequence (P40763 whole entry): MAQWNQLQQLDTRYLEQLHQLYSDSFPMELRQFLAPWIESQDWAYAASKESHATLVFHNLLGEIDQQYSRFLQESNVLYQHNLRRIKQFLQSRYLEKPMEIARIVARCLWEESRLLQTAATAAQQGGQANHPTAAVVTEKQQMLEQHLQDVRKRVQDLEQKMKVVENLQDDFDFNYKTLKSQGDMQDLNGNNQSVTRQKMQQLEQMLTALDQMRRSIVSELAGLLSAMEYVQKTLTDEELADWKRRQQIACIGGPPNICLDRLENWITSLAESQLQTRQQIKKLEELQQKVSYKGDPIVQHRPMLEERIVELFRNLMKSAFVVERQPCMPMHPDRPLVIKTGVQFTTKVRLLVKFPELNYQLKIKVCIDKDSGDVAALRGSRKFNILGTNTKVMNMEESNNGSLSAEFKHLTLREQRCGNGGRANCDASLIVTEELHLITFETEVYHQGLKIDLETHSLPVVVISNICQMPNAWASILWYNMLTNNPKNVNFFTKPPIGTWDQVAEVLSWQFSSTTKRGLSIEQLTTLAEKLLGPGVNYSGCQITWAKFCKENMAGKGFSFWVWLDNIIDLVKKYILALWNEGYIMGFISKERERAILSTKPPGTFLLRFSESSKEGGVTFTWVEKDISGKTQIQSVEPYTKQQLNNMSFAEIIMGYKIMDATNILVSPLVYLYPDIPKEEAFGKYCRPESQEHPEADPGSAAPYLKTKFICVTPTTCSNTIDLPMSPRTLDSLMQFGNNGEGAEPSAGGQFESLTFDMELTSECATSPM

For `Cn1c(=O)n(C2CCC(=O)NC2=O)c2ccc(C[C@H]3CC[C@@H](CC(=O)N4CC[C@H]5CC[C@@H](C(=O)N[C@@H](CCC(N)=O)C(=O)NC(c6ccccc6)c6ccccc6)N5C(=O)[C@@H](NC(=O)c5cc6cc(C(=O)P(=O)(O)O)ccc6[nH]5)C4)CC3)cc21` (stereo partly drawn) [Compound I-174, 2-[[(5S,8S,10aR)-8-[[(1S)-3-carbamoyl-1-(diphenylmethylcarbamoyl)propyl]carbamoyl]-6-oxo-3-[2-[(1s,4s)-4-[[1-(2,6-dioxopiperidin-3-yl)-3-methyl-2-oxo-1,3-benzodiazol-5-yl]methyl]cyclohexyl]acetyl]-octahydropyrrolo[1,2-a][1,5]diazocin-5-yl]carbamoyl]-1H-indole-5-carbonylphosphonic acid], the “STAT3-dependent gene expression of STAT3” value in the assay on STAT3 [1] is recorded as “downregulates”. Moreover, the IC50 (usually the midpoint of a concentration-inhibition curve) in the assay with SOCS3 (Homo sapiens, 24 hr) was determined as 0.022 µM; with DEL cells (96 h, ALCL (ALK+), Day 4, read-out: CTG, IC50 μM, Day 4), 0.016 µM; with PD-L1 (Homo sapiens, 24 hr), 0.029 µM. In addition, in the assay on SOCS3 (FIG. 5A, FIG. 15), the “STAT3-dependent gene expression of SOCS3” value is recorded as “downregulates”. In addition, the “viability of SU-DHL-1 cells after wash-out” value with SU-DHL-1 cells [2] was “profound effects on the viability of SU-DHL-1 cells”. In the assay on SU-DHL-1 cells [3], the “decrease of STAT3 necessary to induce SU-DHL-1 apoptosis and inhibit cell growth” value was 90%. Further, the “CTG (% Max inh), Day 4” value in the assay with DEL cells (ALCL (ALK+), Day 4) is reported as “(95) %”. Also, the cell proliferation entry with DEL cells (FIG. 16) is listed as “inhibit”. The “growth and cell death after wash-out” value was “strong growth inhibition and potential cell death” in the assay on SU-DHL-1 cells [4] (24 hours wash-out); “complete growth inhibition and cell death” in the assay on SU-DHL-1 cells [4] (48 hours wash-out). Moreover, on STAT3 [5], the DC50 (usually the concentration giving 50% degradation) is 10 to 100 nM. Besides, the “STAT3-dependent gene expression of PDL-1” value in the assay on PD-L1 (FIG. 5A, FIG. 15) is listed as “downregulates”.
